In patent US20230121313A1 (priority 2019, published 2023):

How the values were obtained:
[1] = test system: subjects with MDD at imminent risk for suicide; settings: human, in vivo, other: intranasal, 84 mg
Procedure: Transient blood pressure increases peaked for the esketamine group at approximately 40 minutes post dose with the maximum mean increases (across all dosing days) in systolic BP being 8.7 in the placebo group and 16.7 in the esketamine 84 mg group. The maximum mean increases (across all dosing days) in diastolic BP were 7.6 in the placebo group and 11.9 in the esketamine 84 mg group. […] See, FIGS. 46 and 47.

[2] = test system: patients with treatment-resistant depression (TRD); assay: GAD-7, phase 2 dose-response study in TRD; assay type: in vivo, human
Procedure: Overall illness severity was assessed on the Clinical Global Impression of Severity (CGI-S) scale (Guy, “ECDEU Assessment Manual for Psychopharmacology-Revised (DHEW Publ No ADM 76-338)”, Rockville, Md.: U.S. Department of Health, Education, and Welfare, Public Health Service, Alcohol, Drug Abuse, and Mental Health Administration, NIMH Psychopharmacology Research Branch, Division of Extramural Research Programs; 1976, pp 218-222). Participants assessed their severity of anxiety on the Generalized Anxiety Disorder 7-item (GADS-7) Scale (See, Tables 157 and 158). See, Spitzer, “A brief measure for assessing generalized anxiety disorder—the GAD-7”, Arch. Intern. Med., 2006, 166(10):1092-1097.

[3] = Procedure: This example provides an LC-MS/MS method for the determination of ketamine and norketamine in sodium heparin human plasma using ketamine-d4 and norketamine-d4 as the respective internal standards (IS).
Retention time and peak area were determined by Analyst® Data Acquisition/Processing Software (Version 1.4.2). Analyte concentrations were obtained from a calibration curve constructed by plotting the peak area ratio versus the concentration using Watson LIMS (Version 7.3). Watson LIMS and Microsoft Office Excel were used for statistical calculations. When Office Excel was used the calculations were 100% audited. Concentrations were calculated using linear regression according to the following equation: […]
Selectivity is defined as the ability of a chromatographic method to measure a response from the analyte without interference from the biological matrix. This was accomplished by evaluating six individual lots of human plasma prepared as blank and at the lower limit of quantitation (LLOQ, 0.500 ng/mL).
The matrix effect is defined as the suppression or enhancement of ionization of analytes by the presence of matrix components in the biological samples. See, e.g., C. T. Viswanathan, “Quantitative Bioanalytical Methods Validation and Implementation: Best Practices for Chromatographic and Ligand Binding Assays,” Pharmaceutical Research, Vol. 24, No. 10, October 2007, p. 1969. The matrix effect was evaluated by extracting single replicates of six lots of blank human plasma and spiking each lot at the Low and High QC concentration levels (1.50 ng/mL and 375 ng/mL) post extraction. The area ratios of the six lots of post-extraction spiked plasma samples were compared to the mean area ratio obtained from three replicates of the neat solution prepared at the same concentration level in purified water.
The linearity of the method was evaluated at a linear range of 0.500/0.500-500/500 ng/mL for ketamine/norketamine in human plasma. Linear regression (with a weighting factor of 1/x2) was used to produce the best fit for the concentration-detector response relationship for ketamine and norketamine in human plasma.
The validation was conducted with a target LLOQ of 0.500 ng/mL for ketamine and norketamine in human plasma. To evaluate the sensitivity, six QC samples prepared at the LLOQ were analyzed during three individual batch runs as part of the intra-run and inter-run accuracy and precision for the method. The concentrations were calculated with the calibration curve.
The intra-run and inter-run accuracy and precision of the method were investigated at four different QC concentration levels (0.500 ng/mL (LLOQ), 1.50 ng/mL, 80.0 ng/mL, and 375 ng/mL).
Recoveries were calculated according to the following formula: […]
To assess the reinjection reproducibility, an analyte batch containing a standard curve and QC samples was reinjected after being kept at room temperature for 161.5 hours.

adult subjects with TRD = settings: human, in vivo, other: intranasal
Procedure: The MOAA/S was used to measure treatment-emergent sedation, with correlation to levels of sedation defined by the American Society of Anesthesiologists (ASA) continuum. The MOAA/S scores range from 0=no response to painful stimulus (corresponds to ASA continuum for general anesthesia) to 5=readily responds to name spoken in normal tone (awake; corresponds to ASA continuum for minimal sedation).
On each intranasal dosing day, the MOAA/S was performed every 15 minutes from pre-dose to t=+1.5 hours post-dose. If the score was ≤3 at any time during the 1.5 hours post-dose interval, the MOAA/S was performed every 5 minutes until a score of 4 is reached (at which point a frequency of every 15 minutes can be resumed until t=+1.5 hours post dose). […] For subjects with a score of 4, the assessment was repeated every 15 minutes. […]
The Modified Observer's Assessment of Alertness/Sedation (MOAA/S) was used to measure treatment-emergent sedation with correlation to levels of sedation defined by the American Society of Anesthesiologists (ASA) continuum. The MOAA/S scores ranged from 0 (No response to painful stimulus; corresponds to ASA continuum for general anesthesia) to 5 (Readily responds to name spoken in normal tone [awake]; corresponding to ASA continuum for minimal sedation).

subjects with TRD = settings: human, in vivo, other: intranasal
Procedure: The Clinician Administered Dissociative States Scale (CADSS) was measured prior to the start of each dose, at 40 minutes, and 1.5 hours postdose.

**Q.** Which results are given for `CN[C@]1(c2ccccc2Cl)CCCCC1=O` [esketamine, (S)-2-(2-chlorophenyl)-2-(methylamino)cyclohexanone]?
**A.** Blood pressure returning to normal range by (post dose) [1]: ≤ 2 h; Maximum mean increase in diastolic BP (across all dosing days) ([1]; 40 minutes): 11.9; Maximum mean increase in systolic BP (across all dosing days) ([1]; 40 minutes): 16.7; GAD-7 LS mean difference from placebo (SE) ([2]; Period 1, 28 mg): −0.21 (1.461); GAD-7 change from baseline to end point, LS mean (SE) ([2]; Period 1, 28 mg): −1.5 (1.34); GAD-7 LS mean difference from placebo (SE) ([2]; Period 1, 56 mg): −1.40 (1.478); GAD-7 change from baseline to end point, LS mean (SE) ([2]; Period 1, 56 mg): −3.1 (1.34); GAD-7 LS mean difference from placebo (SE) ([2]; Period 1, 84 mg): −3.44 (1.414); GAD-7 change from baseline to end point, LS mean (SE) ([2]; Period 1, 84 mg): −5.1 (1.30); GAD-7 LS mean difference from placebo (SE) ([2]; Period 2, 28 mg): −2.02 (1.089); GAD-7 change from baseline to end point, LS mean (SE) ([2]; Period 2, 28 mg): −1.6 (0.87); GAD-7 LS mean difference from placebo (SE) ([2]; Period 2, 56 mg): 0.60 (1.033); GAD-7 change from baseline to end point, LS mean (SE) ([2]; Period 2, 56 mg): 1.0 (0.98); GAD-7 LS mean difference from placebo (SE) ([2]; Period 2, 84 mg): −1.25 (1.205); GAD-7 change from baseline to end point, LS mean (SE) ([2]; Period 2, 84 mg): −0.9 (1.02); QC sample freeze/thaw stability ([3]; freeze (−20° C.)/thaw (room temperature)): 3 freeze (−20° C.)/thaw (room temperature) cycles; QC sample long-term storage stability ([3]; human plasma QC sample at −20° C.): 707 days at −20 °C; QC sample bench-top stability ([3]; human plasma QC sample, room temperature): 18 hours at room temperature; Sedation (MOAA/S) resolved by (postdose) (adult subjects with TRD): ≤ 1.5 h; CADSS dissociative and perceptual change symptoms resolved by (postdose) (subjects with TRD): ≤ 1.5 h
